Experiment [1] has as its target T1, recombinant human MAGL enzyme (Homo sapiens, UniProt Q99685).
T1 construct: purchased Cayman Chemical 10007812
T1 sequence (Q99685 1-303): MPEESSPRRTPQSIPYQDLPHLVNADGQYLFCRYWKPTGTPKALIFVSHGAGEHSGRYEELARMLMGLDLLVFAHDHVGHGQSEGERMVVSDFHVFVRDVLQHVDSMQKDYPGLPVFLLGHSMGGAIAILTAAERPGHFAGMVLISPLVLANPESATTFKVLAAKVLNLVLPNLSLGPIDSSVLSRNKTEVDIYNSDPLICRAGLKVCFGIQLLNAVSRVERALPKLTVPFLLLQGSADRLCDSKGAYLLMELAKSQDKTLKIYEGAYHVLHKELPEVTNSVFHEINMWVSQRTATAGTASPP
Nature of the experiment: In vitro screening of activity on the recombinant human MAGL enzyme (4-NPA substrate, absorbance 405 nm). The settings on record: substrate 4-NPA, room temperature, 30 minutes. In kind it is biochemical. The method, then:
The compound 4-nitrophenyl acetate (4-NPA Merck-Sigma Aldrich, 8430750025) was used as a substrate for the recombinant human MAGL enzyme (Cayman Chemical, 10007812). IC50 values were generated in microplates containing 96 wells. The catalytic reaction was carried out at room temperature, at a final volume of 200 µL in 10 mM Tris buffer at pH 7.2 containing 1 mM EDTA and 0.1 mg/ml BSA. A total of 150 µL of 4-NPA 133.3 µM in ethanol was added to 10 µL of DMSO containing the appropriate amount of compound (500 - 0.00256 µM). The reaction began with the addition of 40 µL of the MAGL enzyme (11 ng/well). […] After the reaction continued for 30 minutes, the absorbance values were then measured using a Victor X3 (PerkinElmer®) microplate reader at a wavelength of 405 nm. Two other analyzes were also performed in parallel: one reaction without compounds and the second containing neither compound nor enzyme. […] The IC50 values were calculated from the experimental data (absorbance) through the construction of dose-response curves.

For experiment [2], the system named is CAOV3. Nature of the experiment: Cell viability assay (CellTiter-Glo) CAOV3. The note with it: Homo sapiens, Caov-3; cell viability after 96 hours; read-out: IC50 (µM, mean ± SD) CAOV3. The experiment is classed as cell-based. Here is the method: (§1) The following tumor cell lines, MDA-MB-231 (Cell Biolabs AKR-231), HCT116 (ATCC® CCL-247), CAOV3 (ATCC® HTB-75), OVCAR3 (ATCC® HTB-161) and SKOV3 (ATCC® HTB-77) were kept at 37 °C in a humidified atmosphere containing 5% CO2 according to the supplier. Cells (5 x 10^2) were plated in 96-well culture plates. The day after plating, the compounds were dissolved in DMSO and added at different concentrations to the medium (final DMSO concentration < 5%). The compounds were added to the cell culture at a concentration between 200 and 0.02 µM. Cell viability was measured after 96 hours with the CellTiter-Glo® Luminescent Cell Viability Assay kit in accordance with the supplier Promega (G7571) with a Tecan M1000 instrument. IC50 values were calculated from dose-response curves. The means were obtained from the triplicates (Table 2). Table 2. Cell viability inhibition activity (IC50, µM) of compound 15.
A general note: Cellular ATP, detected with luciferase, serves as a proxy for viable cell number.

Experiment [3] has as its system HCT116. Nature of the experiment: Cell viability assay (CellTiter-Glo) HCT116. The experiment is classed as cell-based. The note with it: Homo sapiens, HCT-116; cell viability after 96 hours; read-out: IC50 (µM, mean ± SD) HCT116. The method, then:
as §1

For experiment [4], the target named is T1, recombinant human MAGL enzyme. The experiment can be described thus: Enzymatic kinetics experiments with scalar concentrations of 4-NPA (Michaelis-Menten, mixed-model inhibition fit). In kind it is biochemical. The note with it: compound 1-0.125 µM, 4-NPA 15-1400 µM. Here is the method: In enzymatic kinetics experiments, compound 15 was tested in the presence of scalar concentrations of […]. It was added in staggered amounts (concentration range = 1-0.125 µM in DMSO) to a reaction mix containing staggered concentrations of 4-NPA (15-1400 µM in ethanol). Finally, the buffer solution containing the recombinant human MAGL enzyme (11 ng/well) was added. The enzymatic activity was measured at room temperature by recording the increase in absorbance corresponding to the increase in the concentration of […] using a Victor X3 microplate reader (PerkinElmer®). The absorbance was converted into enzymatic rate by making appropriate use of positive and negative controls. The experimental data were analyzed by […] regression analysis applying the inhibition fit of the mixed model (Fig. 1).

The subject of experiment [5] is MDA-MB-231. The experiment can be described thus: Cell viability assay (CellTiter-Glo) MDA-MB-231. The settings on record: Homo sapiens, cell viability after 96 hours, read-out: IC50 (µM, mean ± SD) MDA-MB-231. The experiment is classed as cell-based. The method, then: as §1
Experiment [6] has as its system OVCAR3. The experiment can be described thus: Cell viability assay (CellTiter-Glo) OVCAR3. The experiment is classed as cell-based. The note with it: Homo sapiens, OVCAR-3; cell viability after 96 hours; read-out: IC50 (µM, mean ± SD) OVCAR3. Here is the method:
as §1

Experiment [7] addresses T1, recombinant human MAGL enzyme. Nature of the experiment: MAGL dilution assay with the recombinant human MAGL enzyme. In kind it is biochemical. The note with it: 20 µM vs 40X dilution (final 0.5 µM) vs 0.5 µM (Fig. 3). The method, then: […] The mixture containing the inhibitor and the enzyme was then diluted 40 times with the buffer solution. After 15 minutes of incubation, the reaction was started in a 160 µL aliquot with the addition of 40 µL of 4-NPA 500 µM in buffer and the enzyme activity was measured according to the procedure described above.
The % of inhibition of the MAGL enzyme was calculated from the measured absorbance. The absorbance measured in the presence of only enzyme with vehicle and without compound was considered as absence of inhibition (positive control), while the absorbance measured in the wells with only vehicle without enzyme and without compound was considered as 100% inhibition (negative control). Intermediate absorbance values with respect to these two extremes indicate enzymatic inhibition and are calculated as the difference between the absorbance value in the well with the compound and the absorbance value of the negative control, all scaled as a percentage considering as the maximum value the negative control and minimum value of minimum inhibition the positive control.
In dilution experiments, if compound 15 were an irreversible inhibitor, its inhibitory potency should not decrease upon dilution.

Experiment [8] deals with SKOV3. Nature of the experiment: Cell viability assay (CellTiter-Glo) SKOV3. In kind it is cell-based. The note with it: Homo sapiens, SK-OV-3; cell viability after 96 hours; read-out: IC50 (µM, mean ± SD) SKOV3. The method, then:
as §1

As a reminder, the IC50 is the concentration that gives 50% inhibition. `O=C(Cc1ccccc1)Nc1cc(-c2ccc(O)c(F)c2)ccc1O` [Compound 13, N-(3'-Fluoro-4,4'-dihydroxy-[1,1'-biphenyl]-3-yl)-2-phenylacetamide]: in experiment [1], the IC50 came out at 5.1 ± 0.5 µM.

With `CCCCCCCCCCCC(=O)Nc1cc(-c2ccc(O)c(F)c2)ccc1O` [Compound 7, N-(3'-Fluoro-4,4'-dihydroxy-[1,1'-biphenyl]-3-yl)dodecanamide], the IC50 in experiment [1] was found to be 2.8 ± 0.3 µM.

Consider `CCCCCCC(=O)Nc1cc(-c2ccc(O)c(F)c2)ccc1O` [Compound 3, N-(3'-Fluoro-4,4'-dihydroxy-[1,1'-biphenyl]-3-yl)eptanamide], for which, in experiment [1], the IC50 stood at 1.1 ± 0.1 µM.

On to `O=C(Cc1cccc2ccccc12)Nc1cc(-c2ccc(O)c(F)c2)ccc1O` [Compound 17, N-(3'-Fluoro-4,4'-dihydroxy-[1,1'-biphenyl]-3-yl)-2-(naphtalen-1-yl)acetamide], for which, in experiment [1], the IC50 stood at 1.9 ± 0.1 µM.

By Ki is commonly meant the dissociation constant of the complex between target and ligand, obtained from inhibition or displacement. Take `O=C(CCCc1ccccc1)Nc1cc(-c2ccc(O)c(F)c2)ccc1O` [Compound 15, N-(3'-Fluoro-4,4'-dihydroxy-[1,1'-biphenyl]-3-yl)-4-phenylbutanamide]: the IC50 stood at 34 ± 4 µM in experiment [2]; 14 ± 2 µM in experiment [3]; 75 ± 6 µM in experiment [5]; 75 ± 4 µM in experiment [6]; 0.34 ± 0.01 µM in experiment [1]; 16 ± 2 µM in experiment [8]. In addition, in experiment [4], the Ki turned out to be 0.146 µM. Moreover, in experiment [7], the “Inhibition mechanism from percentage of inhibition after 40X dilution” value is “reversible inhibition”.

For the compound `O=C(CCc1ccccc1)Nc1cc(-c2ccc(O)c(F)c2)ccc1O` [Compound 14, N-(3'-Fluoro-4,4'-dihydroxy-[1,1'-biphenyl]-3-yl)-3-phenylpropanamide], in experiment [1], the IC50 worked out at 2 ± 0.1 µM.

As to `CCCCCC(=O)Nc1cc(-c2ccc(O)c(F)c2)ccc1O` [Compound 2, N-(3'-Fluoro-4,4'-dihydroxy-[1,1'-biphenyl]-3-yl)hexanamide], the IC50 in experiment [1] worked out at 3.2 ± 0.2 µM.

On to `O=C(CCCCc1ccccc1)Nc1cc(-c2ccc(O)c(F)c2)ccc1O` [Compound 16, N-(3'-Fluoro-4,4'-dihydroxy-[1,1'-biphenyl]-3-yl)-5-phenylpentanamide], for which the IC50 in experiment [1] came out at 1.1 ± 0.1 µM.

Turning to `CC(C)C(=O)Nc1cc(-c2ccc(O)c(F)c2)ccc1O` [Compound 10, N-(3'-Fluoro-4,4'-dihydroxy-[1,1'-biphenyl]-3-yl)isobutyramide], in experiment [1], the IC50 amounted to 19.7 ± 1 µM.

`CCCCCCCC(=O)Nc1cc(-c2ccc(O)c(F)c2)ccc1O` [Compound 4, N-(3'-Fluoro-4,4'-dihydroxy-[1,1'-biphenyl]-3-yl)octanamide]: the IC50 in experiment [1] turned out to be 0.61 ± 0.03 µM.

Turning to `CCCCCCCCCCCCCCCC(=O)Nc1cc(-c2ccc(O)c(F)c2)ccc1O` [Compound 9, N-(3'-Fluoro-4,4'-dihydroxy-[1,1'-biphenyl]-3-yl)palmitamide], the IC50 in experiment [1] was above 20 µM.

For `O=C(Nc1cc(-c2ccc(O)c(F)c2)ccc1O)c1ccccc1` [Compound 12, N-(3'-Fluoro-4,4'-dihydroxy-[1,1'-biphenyl]-3-yl)benzamide], in experiment [1], the IC50 stood at 6.9 ± 0.4 µM.

Take `CC(C)(C)C(=O)Nc1cc(-c2ccc(O)c(F)c2)ccc1O` [Compound 11, N-(3'-Fluoro-4,4'-dihydroxy-[1,1'-biphenyl]-3-yl)pivalamide]: the IC50 in experiment [1] is above 20 µM.

For `CCCCCCCCCC(=O)Nc1cc(-c2ccc(O)c(F)c2)ccc1O` [Compound 6, N-(3'-Fluoro-4,4'-dihydroxy-[1,1'-biphenyl]-3-yl)decanamide], the IC50 in experiment [1] was determined as 1.1 ± 0.1 µM.

As to `CCCCCCCCCCCCCC(=O)Nc1cc(-c2ccc(O)c(F)c2)ccc1O` [Compound 8, N-(3'-Fluoro-4,4'-dihydroxy-[1,1'-biphenyl]-3-yl)tetradecanamide], the IC50 in experiment [1] turned out to be 2.5 ± 0.4 µM.

Take `CCCCC(=O)Nc1cc(-c2ccc(O)c(F)c2)ccc1O` [Compound 1, N-(3'-Fluoro-4,4'-dihydroxy-[1,1'-biphenyl]-3-yl)pentanamide]: the IC50 in experiment [1] was determined as 7.6 ± 0.1 µM.

For the compound `CCCCCCCCC(=O)Nc1cc(-c2ccc(O)c(F)c2)ccc1O` [Compound 5, N-(3'-Fluoro-4,4'-dihydroxy-[1,1'-biphenyl]-3-yl)nonanamide], in experiment [1], the IC50 amounted to 2.9 ± 0.1 µM.

For the origin of these results see EP3889132B1, “MONOACYLGLYCEROL LIPASE (MAGL) INHIBITORS” (Università di Pisa, priority 2020, dated 2021).
